Test results reported in PMC7985297 (Communications Biology, 2021).
Several values for one entry are separate records, joined by “and”; a condition that tells them apart may be missing. Equal entries are not always repeated.

Assays:
[1] = biological target: T1, recombinant human Pin1 protein (Homo sapiens, UniProt Q13526); assay: Pin1 inhibition assay (fluorometric isomerase activity); assay type: biochemical; details: compounds 0–50 µM, 500 ng Pin1, Supplementary Fig. 2
T1 construct: purchased Abcam ab51230
T1 sequence (Q13526 whole entry): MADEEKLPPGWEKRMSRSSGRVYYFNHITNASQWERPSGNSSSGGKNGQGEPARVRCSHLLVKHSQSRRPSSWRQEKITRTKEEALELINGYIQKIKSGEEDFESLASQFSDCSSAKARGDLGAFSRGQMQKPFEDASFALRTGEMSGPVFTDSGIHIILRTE
Method: The effect of inhibitors on Pin1 isomerase activity was evaluated using a fluorometric Pin1 Assay Kit (AnaSpec, Fremont, California), according to the manufacturer’s protocol. […] Fluorescence intensity was measured with excitation wavelength at 490 nm and emission wavelength at 520 nm on an Infinite M1000 plate reader (Tecan, Männedorf, Switzerland) at 37 °C. Measurements were recorded every 5 min for up to 1 h.
Fluorescent polarization-based assay
the isomerase activity of Pin1. Each reaction contains 500 ng of
recombinant human Pin1 protein incubated with an inhibitor and a
fluorogenic substrate at 37°C. The uncatalyzed reaction represents
the intrinsic cis/trans isomerization of the substrate without Pin1
separate experiments with the correlation performed in duplicate
wells. RFU, relative fluorescent units.
(1 picture or pasted object on this page, not shown here)

[2] = test system: Pin1 and cell cycle proteins in LN95 cells; assay: Western blot of Pin1 and cell cycle proteins in LN95 cells; details: for CyclinA2 protein level (Fig. 6a) / CyclinB1 protein level (Fig. 6a) / CyclinD1 protein level (Fig. 6a) / Pin1 protein level (Fig. 6a) / p21 protein level (Fig. 6a) / p27 protein level (Fig. 6a): relative to 0 μM = 1, replicate experiments by date
Method: Data shown are the means ± s.e.m. from 3–4 independent experiments. Statistical significance was determined by ANOVA using the Dunnett’s multiple comparisons test. *P < 0.05, **P < 0.01, ***P < 0.001.
For western blot analyses, membranes were blocked with 5% non-fat milk in phosphate-buffered saline containing 0.1% Tween-20 (PBS-T) and then incubated overnight at 4 °C with primary antibody (1:200–5000) in PBS-T containing 5% non-fat milk or 2% BSA. After incubation with the primary antibody, the membrane was washed three times with TBS-T, incubated with a horseradish peroxidase-conjugated antibody secondary antibody (1:5000–10,000) for 1–2 h at room temperature, and washed three times with PBS-T and two more times with PBS before chemiluminescence was detected with ECL Prime Reagent (GE Healthcare Life Science, Mississauga, ON). Western blot images were captured using the ChemiDoc MP Imaging System (Bio-Rad Laboratories, Hercules, CA) and quantified using ImageJ software.

[3] = biological target: T2, full-length AR (Homo sapiens, UniProt P10275, T878A); assay: PSA(6.1 kb)-luciferase AR-driven reporter assay in LNCaP cells; assay type: cell-based; details: for PSA(6.1 kb)-luciferase activity normalized to fold-induction by R1881 (=100): without or with ATRA 5uM; for fractional response (Fig. 5h): monotherapy or with 5 µM ATRA
T2 construct: Transcriptional activity of full-length AR was assessed in LNCaP cells; endogenous in cells; host or cells: LNCaP
T2 sequence (P10275 1-920 T878A): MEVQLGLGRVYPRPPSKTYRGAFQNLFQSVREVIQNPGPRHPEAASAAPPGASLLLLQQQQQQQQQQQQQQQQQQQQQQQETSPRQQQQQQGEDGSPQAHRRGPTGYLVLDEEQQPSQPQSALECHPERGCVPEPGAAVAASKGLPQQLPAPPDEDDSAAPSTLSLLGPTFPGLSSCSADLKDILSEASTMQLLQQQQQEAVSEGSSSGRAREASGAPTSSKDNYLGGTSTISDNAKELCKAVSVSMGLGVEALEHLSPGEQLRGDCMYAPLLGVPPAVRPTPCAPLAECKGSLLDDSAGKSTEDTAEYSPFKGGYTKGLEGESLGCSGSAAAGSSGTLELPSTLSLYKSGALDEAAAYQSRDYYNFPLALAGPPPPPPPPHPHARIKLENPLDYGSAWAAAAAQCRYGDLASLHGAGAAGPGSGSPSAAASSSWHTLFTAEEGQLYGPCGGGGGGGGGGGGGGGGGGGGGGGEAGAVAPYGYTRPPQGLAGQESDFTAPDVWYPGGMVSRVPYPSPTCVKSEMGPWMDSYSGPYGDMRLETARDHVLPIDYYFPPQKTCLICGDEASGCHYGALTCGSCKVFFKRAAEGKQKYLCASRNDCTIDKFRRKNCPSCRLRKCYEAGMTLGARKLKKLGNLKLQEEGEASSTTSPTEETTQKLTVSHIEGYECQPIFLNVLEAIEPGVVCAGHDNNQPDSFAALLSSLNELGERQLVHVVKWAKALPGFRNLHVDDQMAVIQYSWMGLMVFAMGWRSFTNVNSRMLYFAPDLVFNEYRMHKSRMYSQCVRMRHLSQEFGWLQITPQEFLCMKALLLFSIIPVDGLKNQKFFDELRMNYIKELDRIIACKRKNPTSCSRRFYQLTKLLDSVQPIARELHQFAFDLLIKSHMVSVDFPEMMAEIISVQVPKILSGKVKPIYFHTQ

[4] = test system: LN95-D3 xenografts; assay: Growth of LN95-D3 CRPC xenografts in castrated male NSG mice; assay type: in vivo; details: castrated mice, ATRA 5 mg 21-day release pellet, EPI-7170 30 mg/kg daily oral, relative to vehicle/placebo-control
[5] = test system: Pin1, Cyclin D1, Skp2 and AR in LN95-D3 tumors; assay: Western blot of harvested LN95-D3 xenograft tumors (Pin1, Cyclin D1, Skp2, AR); assay type: in vivo, mice; details: LN95-D3 tumors at end of study
Method: Scale bars represent 5 mm (f) western blot analysis showing the expression of Pin1, Cyclin D1, Skp2, and AR from representative tumors. Quantification of the data is shown for g Pin1 and h Skp2, where the error bars represent the mean ± s.e.m.
All experiments involving animals conform to the relevant regulatory and ethical standards and were approved by the University of British Columbia Animal Care Committee (A18-0077). Metacam (1 mg/kg, 0.05 mL/10 g of body weight) was administered subcutaneously prior to any surgery. Animals were anesthetized with isoflurane and euthanized by CO2. Six–eight-week-old male (NOD-scid IL2Rgamma^null) mice were maintained in the Animal Care Facility at the British Columbia Cancer Research Centre. Mice were castrated 2 weeks before they were subcutaneously inoculated in the right flank with two million LN95-D3 cells in a 1:1 volume of matrigel (Corning Discovery Labware, Corning, NY). […] Tumors were excised 1 day after the last dose and prepared for western blot analysis and immunohistochemistry.

[6] = test system: Ki-67, PSA and AR in LN95-D3 xenografts; assay: Immunohistochemistry of LN95-D3 xenografts (Ki-67, PSA, AR); assay type: in vivo, mice
Text: Fig. 8 Immunohistochemistry of LN95-D3 xenografts. a Representative images showing the histomorphology and expression of Ki-67, PSA, and AR from harvested tumors. Scale bars represent 100 µm. Statistical analysis for b the percentage of Ki-67-positive tumor cells and for the expression of c PSA and d AR. Error bars represent the mean ± s.d.
Sections were cut from formalin-fixed, paraffin-embedded tumor tissue at a thickness of 5 µm, deparaffinized in xylene, and then rehydrated in alcohols and distilled water. Endogenous peroxidase was blocked by incubating with a 3% hydrogen peroxide solution for 5 min. […] PSA was detected using a monoclonal mouse anti-human PSA antibody concentrate (ER-PR8; Dako). A negative control without the primary antibody was included for each sample on the same slide. Antigen was detected with 3,3-diaminobenzidine (DAB) and hematoxylin was used for counterstaining. Images were captured on an Axio Imager M2 microscope (Zeiss) at ×200 magnification. The percentage of Ki-67-positive cells was determined with ImageJ using the Cell Counter plugin. At least 1000 cells were scored from three images of representative tumors for each treatment group. The intensity of DAB staining for PSA was quantified by ImageJ using color deconvolution and measuring the mean gray value for the DAB image, where optical density = log(max intensity/mean intensity), and a max intensity of 255 for an 8-bit image.

[7] = test system: androgen-regulated genes (KLK3/PSA, TMPRSS2, NKX3.1, FKBP5); assay: Quantitative real-time PCR of androgen-regulated genes in LNCaP cells; assay type: cell-based, human; details: enzalutamide 5 μM, juglone 20 μM, R1881 1 nM, 48 hours
[8] = test system: LN95-D3 cells; assay: Cell cycle analysis by flow cytometry, LN95-D3 subline; assay type: cell-based, human; details: LN95-D3, absence of androgen, 48 h

Compound: CC1=C(/C=C/C(C)=C/C=C/C(C)=C\C(=O)O)C(C)(C)CCC1 [13cisRA, 13-cis-retinoic acid]
- effect on isomerase activity of Pin1 [1]: did not inhibit the isomerase activity of Pin1
- CyclinA2 protein level (Fig. 6a) ([2]; 1 μM): 1.4 and 0.72 and 1.11
- CyclinB1 protein level (Fig. 6a) ([2]; 1 μM): 1.01 and 0.65 and 1.18
- CyclinD1 protein level (Fig. 6a) ([2]; 1 μM): 0.66 and 0.89 and 1.34 and 0.47
- Pin1 protein level (Fig. 6a) ([2]; 1 μM): 1.03 and 1.11 and 1.06 and 0.77
- p21 protein level (Fig. 6a) ([2]; 1 μM): 1.11 and 0.58 and 0.74
- p27 protein level (Fig. 6a) ([2]; 1 μM): 1.11 and 0.36 and 0.65
- CyclinA2 protein level (Fig. 6a) ([2]; 5 μM): 1.68 and 0.83 and 0.8
- CyclinB1 protein level (Fig. 6a) ([2]; 5 μM): 1.11 and 0.76 and 0.82
- CyclinD1 protein level (Fig. 6a) ([2]; 5 μM): 0.7 and 1.29 and 1.73 and 0.85
- Pin1 protein level (Fig. 6a) ([2]; 5 μM): 0.96 and 1.44 (2×) and 0.77
- p21 protein level (Fig. 6a) ([2]; 5 μM): 0.92 and 0.24 and 0.67
- p27 protein level (Fig. 6a) ([2]; 5 μM): 0.91 and 0.32 and 0.6
- CyclinA2 protein level (Fig. 6a) ([2]; 10 μM): 1.29 and 0.49 and 1.45
- CyclinB1 protein level (Fig. 6a) ([2]; 10 μM): 1.06 and 0.77 and 1.15
- CyclinD1 protein level (Fig. 6a) ([2]; 10 μM): 0.54 and 1.01 and 0.27 and 0.84
- Pin1 protein level (Fig. 6a) ([2]; 10 μM): 0.95 and 0.71 and 1.33 and 1.23
- p21 protein level (Fig. 6a) ([2]; 10 μM): 0.89 and 0.39 and 1.12
- p27 protein level (Fig. 6a) ([2]; 10 μM): 1.06 and 0.44 and 1.1
- effect on cellular Pin1 protein levels ([2]; LN95, 0–10 µM): did not impact the cellular levels of Pin1

Compound: CC(C)(c1ccc(OC[C@H](O)CNS(C)(=O)=O)cc1)c1cc(Cl)c(OC[C@H](O)CCl)c(Cl)c1 [EPI-7170]
- inhibition of reporter activity at highest concentration ([3]; 4 µM of EPI-7170): ~ 98%
- mean combination index (CI) with ATRA, PSA(6.1 kb)-luciferase ([3]; ATRA 5 μM, Bliss independence model, highest concentrations excluded): 0.91
- PSA(6.1 kb)-luciferase activity normalized to fold-induction by R1881 (=100) ([3]; EPI-7170 0.2 μM): 77.0788 and 79.4022 and 93.7923 and 73.47
- PSA(6.1 kb)-luciferase activity normalized to fold-induction by R1881 (=100) ([3]; EPI-7170 0.5 μM): 56.3224 and 79.2412 and 61.2392 and 64.29
- fractional response (Fig. 5h) ([3]; EPI-7170 2 μM): 0.8636 and 0.6689 and 0.7916 and 0.8858
- fractional response (Fig. 5h) ([3]; EPI-7170 4 μM): 0.9949 and 0.9737 and 0.993 and 0.9732
- IC50 ([3]; LNCaP, androgen-induced (R1881), 24 h, without ATRA, read-out: IC50 for PSA(6.1 kb) luciferase, monotherapy): 740 ± 1120 nM
- tumor growth after 21 days of treatment [4]: significantly reduced
- tumor levels of Skp2 [5]: reduced
- effect on number of Ki-67-positive tumor cells ([6]; LN95-D3 xenografts): decreased the number of Ki-67-positive tumor cells in xenografts
- levels of AR protein in xenografts (IHC) ([6]; LN95-D3 xenografts): similar
- expression of AR, DAB staining (Fig. 8d) ([6]; LN95-D3 xenografts, ATRA 5 mg pellet, EPI-7170 30 mg/kg/d, listed as EPI placebo): 0.086 and 0.114 and 0.139 and 0.128 and 0.109 and 0.1 and 0.132 and 0.137
- percentage of Ki-67-positive tumor cells (Fig. 8b) ([6]; LN95-D3 xenografts, ATRA 5 mg pellet, EPI-7170 30 mg/kg/d, one value per tumor, listed as EPI placebo): 19.68% and 14.7% and 15.02%
- effect on PSA expression in xenografts (IHC) ([6]; compared to the control): decreased

Compound: CNC(=O)c1ccc(N2C(=S)N(c3ccc(C#N)c(C(F)(F)F)c3)C(=O)C2(C)C)cc1F [enzalutamide]
- effect on androgen-induced FKBP5 transcript [7]: efficiently blocked
- effect on cell cycle distribution [8]: had no effect on the cell cycle distribution
